The text below walks through data of US20230310474A1, “CORONAVIRUS TREATMENT COMPOSITION AND METHOD” (Cleveland State University, priority 2022, published 2023).

Each structure is given as a SMILES string.

One data set deals with T1, Neu1 (Homo sapiens, UniProt Q99519).
T1 construct: expressed in transfected cells; host or cells: HEK293T
Put plainly: Neuraminidase (sialidase) activity assay with 4-MU-NANA in HEK293T cells transfected with Neu1. The format is cell-based.

For data set [1], the system named is HCoV-OC43. Briefly: microbe, parasite or virus in culture. Format: cell-based.
Data set [2] deals with SARS-CoV-2. Put plainly: SARS-CoV-2 high-throughput screen (HTS) cytopathic effect assay in Vero 76 cells. The conditions noted are these: MOI 0.1, 48 hours. Format: cell-based. In general terms: Damage to the host cells serves as the signal in cytopathic effect assays.
A short description of data set [3]: Intracellular conversion of membrane-permeable inhibitor. The conditions noted are these: upon entering into the cells.
Data set [4] relates to HCoV-OC43.
Data set [5] deals with THP-1 cells. Briefly: MTS cell viability assay in THP-1 cells. The format is cell-based, human. The conditions noted are these: all tested concentrations. Here is the method: FIGS. 3A-J illustrate that Neu5Ac2en-OAcOMe exerts anti-viral effects in human cell models. […] (upper) or 37° C. (lower). Intracellular viral RNA was analyzed by RT-qPCR. FIGS. 3B-D show HCoV-OC43 (MOI = 2) infected THP-1 cells were treated with a gradient concentration of Neu5Ac2en-OAcOMe for 72 hours. Intracellular viral RNA (FIG. 3B, upper), extracellular progeny virus yields (FIG. 3B, lower and FIG. 3C) and intracellular nucleocapsid (FIG. 3D) were analyzed by RT-qPCR, TCID50 assay and immunoblot, respectively. The inhibitory and cytotoxic curves (3C) were obtained using the data from the lower panel in FIG. 3B and cell viability measured by MTS assay. CellTiter 96® AQueous One Solution Cell Proliferation Assay (MTS) (Promega, G3582) was performed as instructed in the kit manual. […] Sialylation was detected with biotin-MAA and biotin-SNA lectins. […] Nucleocapsid in the cell lysates was measured by western blot. […] The levels of intracellular nucleocapsid were analyzed by immunofluorescence (48 hours post-infection). […] ND, not detected. […]
(§1) To determine whether Neu5Ac2en-OAcOMe affects post-entry steps of the viral life cycle, THP-1 cells were infected with HCoV-OC43 for two hours and then treated the cells with Neu5Ac2en-OAcOMe. Intracellular viral RNA and viral titers were quantified in the cell culture supernatants 72 hours post-infection.
On the technique in general: Tetrazolium dyes change colour on reduction, which living cells bring about.

For data set [6], the system named is HCoV-OC43. Briefly: HCoV-OC43 replication in epithelial cell lines (HEK293T, HeLa, BSC-1). The format is cell-based. Here is the method:
Cells were fixed with 4% paraformaldehyde in phosphate buffered saline (PBS) at room temperature for 15 min and then permeabilized with 1% Triton X-100 in PBS at room temperature for 15 min. Immunofluorescence staining was performed. Images were acquired with an EVOS FL Auto Imaging System (Thermo Fisher Scientific).
Next, it was tested whether the observed efficacy of Neu5Ac2en-OAcOMe was not restricted to THP-1 cells. The efficacy of Neu5Ac2en-OAcOMe was evaluated in three epithelial cell lines (HEK293T cells, HeLa cells and BSC-1 cells). […] Therefore, cytosolic sialidase inhibitors represent a potential treatment for coronavirus infections.

Data set [7] relates to SARS-CoV-2. The format is in vivo, K18-hACE2 transgenic mice. The conditions noted are these: K18-hACE2 mice, IP on days 0-4, 1 x 10^4 PFU.
Data set [8] has as its system THP-1 cells. Put plainly: Cytokine production in THP-1 cells (human cytokine bead array). Format: cell-based. The protocol:
Mouse blood samples were obtained at indicated time points, and cytokines in the serum were determined using a mouse cytokine bead array designed for inflammatory cytokines (552364, BD Biosciences, San Jose, CA). Human cytokines in cell culture derived supernatants were determined using a human cytokine bead array designed for inflammatory cytokines (551811, BD Biosciences).
as §1

Data set [9] deals with HCoV-OC43. Put plainly: HCoV-OC43 binding and entry assay in pretreated THP-1 cells (4° C. or 37° C.). The format is cell-based. The conditions noted are these: THP-1 cells pretreated two hours; 4° C. one hour or 37° C. two hours post-infection. Here is the method:
Whether Neu5Ac2en-OAcOMe acts on the virus binding and entry steps of the viral life cycle was evaluated. THP-1 cells were treated with Neu5Ac2en-OAcOMe for two hours and then infected the cells with HCoV-OC43 at 4° C. or 37° C. Cells incubated at 4° C. were collected one hour post-infection and cells incubated at 37° C. were collected two hours post-infection. Intracellular viral RNA was quantified by RT-qPCR.

Another data set has as its system human sialidases. The conditions noted are these: cited from earlier work.
Data set [10] relates to SARS-CoV-2. The conditions noted are these: several clinical trials; cited from earlier work.
Where [11] appears, read: HEK293T cells with Neu1 expression vector, 30 min at room temperature.
[12] abbreviates: HEK293T cells, HeLa cells and BSC-1 cells.

In the case of `O=C(CO)N[C@H]1[C@H]([C@H](O)[C@H](O)CO)OC(C(=O)O)=C[C@@H]1O` [Neu5Gc2en, reference compound], the “cell surface sialidase activity” value on Neu1 (setting [11]) is reported as “targets sialidase on cell surface”. For the same compound, the “antiviral activity against HCoV-OC43 (viral transcripts and viral titer)” value (“antiviral activity against HCoV-OC43” below) with HCoV-OC43 [1] is “did not inhibit HCoV-OC43 replication”. The “protection activity (cell viability post SARS-CoV-2 infection)” value (shortened to “protection activity”) in the data set on SARS-CoV-2 [2] is reported as “could not protect”.
Take `COC(=O)C1=CC(OC(C)=O)[C@@H](NC(C)=O)C([C@H](OC(C)=O)[C@@H](COC(C)=O)OC(C)=O)O1` (stereo partly drawn) [Neu5Ac2en-OAcOMe]: the intracellular conversion result in [3] is recorded as “readily converted to the corresponding Neu5Ac2en intracellularly”. Further, the body weight result in the data set with HCoV-OC43 [4] (after HCoV-OC43 infection, 20 mg/kg IP) is “significantly lower in vehicle-treated mice than in Neu5Ac2en-OAcOMe-treated mice”. Moreover, in the data set with HCoV-OC43 [4] (day 5 post-infection), the “brain and lung tissue damage (H&E staining)” value is recorded as “improved”; the “serum IL-6 level” value is on record as “substantial decrease”; the “serum TNF-α level” value is recorded as “substantial decrease”. The “HCoV-OC43 viral replication in the lungs, blood and brain” value in the data set on HCoV-OC43 [4] (day 5 post-infection, 20 mg/kg IP) is “suppression of HCoV-OC43 viral replication”. Also, the “toxic signs and symptoms” value in the data set with HCoV-OC43 [4] (in vivo, all treatment period) is “No toxic signs and symptoms were observed”. In the data set with HCoV-OC43 [4] (seven-day-old C57BL/6 pups, 20 mg/kg IP, 10 days observation), this compound registered a survival of 50%. Further, at Neu1 (setting [11]), the “cell surface sialidase activity” value is “did not affect” and the “total sialidase activity (total cell lysate)” value is given as “significantly decreased”. Besides, the “toxicity in MTS assay” value in the data set on THP-1 cells [5] is recorded as “non-toxic at all tested concentrations”. The “viral replication by immunofluorescence staining for HCoV-OC43-N protein” value with HCoV-OC43 [6] (BSC-1 cells, MOI 0.1, 48 hours post-infection) is “effectively suppressed viral replication”. Also, in the data set with HCoV-OC43 [6] (setting [12]), the “N protein levels in epithelial cell lines” value is “significantly decreased” and the “viral replication in epithelial cell lines” value is “inhibited viral replication in all three cell lines”. In addition, in the data set with SARS-CoV-2 [7], the SARS-CoV-2-induced mortality entry is “significant protection” and the body weight loss entry is recorded as “significant protection”. In the data set with HCoV-OC43 [1], the N protein levels result is “significantly decreased”; the “antiviral activity against HCoV-OC43” value is recorded as “showed the highest antiviral activities”; the “sialylation of HCoV-OC43 N protein” value is on record as “increased sialylation”; the “viral replication at the level of viral transcripts and viral titers” value is given as “significantly decreased viral replication”. In addition, in the data set with HCoV-OC43 [1] (Betacoronavirus 1, OC43, THP-1, read-out: IC50 of viral replication (viral titers in cell culture supernatants)), the IC50 came out at 13.7 µM. For the same compound, the “protection activity” value in the data set with SARS-CoV-2 [2] is given as “showed the highest protection activities”. In addition, in the data set on THP-1 cells [8], the cytokine production result is reported as “did not induce cytokine production”. Also, the “virus binding and entry steps (intracellular viral RNA)” value in the data set on HCoV-OC43 [9] is “did not affect virus binding and entry steps”.
Turning to `CC1(C)Cc2c(sc(NC(=S)NC(=O)c3ccccc3)c2C(=O)O)CO1` [CID-1067700, reference compound], the HCoV-OC43 release entry in the data set on HCoV-OC43 [1] is recorded as “moderately inhibited”.
As for `CC(=O)N[C@H]1[C@H]([C@H](O)[C@H](O)CO)OC(C(=O)O)=C[C@@H]1N=C(N)N` [zanamivir], the “effect on human sialidases” value in the data set with human sialidases is reported as “almost no effect”. The “antiviral activity against HCoV-OC43” value in the data set on HCoV-OC43 [1] is on record as “did not show inhibitory activity”. In addition, the “protection activity” value with SARS-CoV-2 [2] is on record as “did not show inhibitory activity”.
Take `CCOC(=O)C1=C[C@@H](OC(CC)CC)[C@H](NC(C)=O)[C@@H](N)C1` [oseltamivir]: the “effect on human sialidases” value in the data set with human sialidases is given as “almost no effect”. Further, the “sialidase activity in the cytoplasm” value on Neu1 is “only slightly decreased”. The “antiviral activity against HCoV-OC43” value in the data set on HCoV-OC43 [1] is given as “did not show inhibitory activity”. Besides, the “protection activity” value in the data set on SARS-CoV-2 [2] is on record as “did not show inhibitory activity”. Further, in the data set on SARS-CoV-2 [10], the “efficacy in treating SARS-CoV-2 infection” value was “no positive outcomes were observed”.

A word on the IC50: it is the midpoint of a concentration-inhibition curve.
